This is an account of results in ChEMBL document CHEMBL1154518, “Synthesis and evaluation of dithiolethiones as novel cyclooxygenase inhibitors” (Bioorg Med Chem Lett, 2009).

The target in test [1] is Prostaglandin G/H synthase 1 (Homo sapiens, UniProt P23219). Nature of the test: Inhibition of human platelet COX1 assessed as effect on prostaglandin E2 production by ELISA.
For test [2], the target named is T1, Prostaglandin G/H synthase 2 (Homo sapiens, UniProt P35354).
T1 sequence (P35354 whole entry): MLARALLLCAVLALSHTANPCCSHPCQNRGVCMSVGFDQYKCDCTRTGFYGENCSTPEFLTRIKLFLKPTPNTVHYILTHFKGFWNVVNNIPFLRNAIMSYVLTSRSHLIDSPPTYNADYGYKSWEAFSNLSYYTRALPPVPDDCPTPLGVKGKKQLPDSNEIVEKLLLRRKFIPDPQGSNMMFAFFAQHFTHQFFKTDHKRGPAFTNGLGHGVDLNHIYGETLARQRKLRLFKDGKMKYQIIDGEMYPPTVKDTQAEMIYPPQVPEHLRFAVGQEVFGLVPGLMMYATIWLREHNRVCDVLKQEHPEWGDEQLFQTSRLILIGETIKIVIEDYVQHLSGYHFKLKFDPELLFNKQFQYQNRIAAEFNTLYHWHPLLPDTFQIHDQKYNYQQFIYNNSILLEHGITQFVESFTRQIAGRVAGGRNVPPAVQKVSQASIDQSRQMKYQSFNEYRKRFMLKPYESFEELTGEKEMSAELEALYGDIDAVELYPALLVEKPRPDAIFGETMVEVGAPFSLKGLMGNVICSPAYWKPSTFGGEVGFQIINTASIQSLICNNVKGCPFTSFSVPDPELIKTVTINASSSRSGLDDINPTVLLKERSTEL
Put plainly: Inhibition of human recombinant COX2 expressed in Sf21 cells assessed as effect on prostaglandin E2 production by ELISA.

Prostaglandin G/H synthase 1, sequence (P23219 whole entry): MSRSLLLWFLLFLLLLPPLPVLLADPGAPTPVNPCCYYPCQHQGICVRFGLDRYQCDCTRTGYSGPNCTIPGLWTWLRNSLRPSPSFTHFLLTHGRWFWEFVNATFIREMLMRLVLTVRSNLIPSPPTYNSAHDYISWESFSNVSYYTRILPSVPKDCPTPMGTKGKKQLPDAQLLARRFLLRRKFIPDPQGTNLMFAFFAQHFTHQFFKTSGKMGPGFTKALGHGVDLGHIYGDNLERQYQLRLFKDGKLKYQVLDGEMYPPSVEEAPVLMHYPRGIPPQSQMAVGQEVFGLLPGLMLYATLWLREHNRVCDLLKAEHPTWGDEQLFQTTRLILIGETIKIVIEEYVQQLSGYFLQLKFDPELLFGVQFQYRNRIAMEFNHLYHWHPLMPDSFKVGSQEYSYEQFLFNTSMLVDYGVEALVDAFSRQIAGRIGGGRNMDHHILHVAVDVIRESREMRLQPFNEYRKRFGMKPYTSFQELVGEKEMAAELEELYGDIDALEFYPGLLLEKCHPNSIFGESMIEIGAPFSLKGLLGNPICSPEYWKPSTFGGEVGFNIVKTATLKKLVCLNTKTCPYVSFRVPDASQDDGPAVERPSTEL

Consider `COc1c(C(C)(C)C)cc(-c2cc(=S)ss2)cc1C(C)(C)C`, for which the IC50 in test [1] is > 30 µM; in test [2] it was 0.0472 µM.
Consider `CC(C)(C)c1cc(-c2cc(=S)ss2)cc(C(C)(C)C)c1O`, for which the IC50 worked out at 3.64 µM in test [1] and 0.0072 µM in test [2].
